The values below come from patent US12668589B2, “N-formamidopyrazoline derivative as P2X3 receptor antagonist and use thereof” (HANGZHOU WESTAN PHARMACEUTICAL TECHNOLOGY CO., LTD, priority 2020, dated 2026).

A word on the clearance: it is the rate of elimination divided by the concentration. Lower therefore signals a low capacity for elimination. As a reminder, the half-life is how long it takes for the measured level to halve. High values mean slow loss, low ones fast loss. By Tmax is commonly meant the time at which the peak concentration occurs. One may read the bioavailability as the share of a dose that reaches the circulation, judged against a reference dose that is usually intravenous.

Read-outs that look alike come from different tables or passages of the source.

Data set [1] is described as follows: In-vivo pharmacokinetic experiments on rats. Also noted: species or system SD rats. The note with it: for clearance / half-life / Cmax / Vd / Tmax / bioavailability: both sexes, SD, plasma; for Vd: read-out: Vss. On the procedure: SD rats were used, half male and half female, which were administered with compounds by intravenous injection (3 mg/kg), intraperitoneal injection (10 mg/kg) or gavage (30 mg/kg) at different doses. At different time points after administration, blood was collected into EDTA blood sample collection tubes. Plasma was separated by centrifugation and stored at −20° C. pending analysis.
Standard curve and quality control sample preparation and processing: a compound stock solution was taken and diluted with 50% methanol water to make standard working solutions containing each compound concentration of 20 to 10,000 ng/mL, and 60, 600, 6,000 ng/mL quality control working solutions. 47.5 μL of blank rat plasma was taken, respectively, in which 2.50 μL of the standard curve working solutions and quality control working solutions were added to prepare standard curve samples with each compound concentration of 1.00 to 500.00 ng/mL and quality control samples with concentrations of 3.00, 30.00 and 300.00 ng/mL. 200 μL of acetonitrile (containing 5 ng/mL internal standard verapamil) was added into each sample. After vortex oscillation for 3 minutes, centrifuging was conducted for 15 minutes at 20,000 rcf at 4° C. Supernatants were taken for LC-MS/MS analysis.
Compound blood sample processing: 5 μL of plasma samples were taken. 45 μL of Blank rat plasma was added. 200 μL of Acetonitrile (containing 5 ng/mL internal standard verapamil) was added. After vortex oscillation for 3 minutes, centrifuging was conducted for 15 minutes at 20,000 rcf at 4° C. Supernatants were taken for LC-MS/MS analysis.

Data set [2] in a line: Stability in simulated gastric fluids and simulated intestinal fluids. Format: in vitro ADME. The settings on record: 1.25 μM, 37° C., up to 5 hours, pH 1.3 with pepsin / pH 6.8 with trypsin; result in words. As for the experimental part: An LC-MS/MS method, wherein A liquid phase method adopts a gradient elution method. Chromatographic Column: ACQUITY UPLC® BEH C18 (2.1 mm×50 mm, 1.7 μm); Flow Rate: 0.35 mL/min; Injection Volume: 1 μL; Column Temperature: 40° C.; Automatic Sampler Temperature: 10° C.; Mobile Phase Compositions: mobile phase A: 0.1% formic acid water, and mobile phase B: acetonitrile. Mass spectrometry conditions adopt an ESI source, and positive ion and multiple reaction monitoring (MRM) modes were used for mass spectrometry analysis.
Simulated gastric fluid and simulated intestinal fluid samples were taken, in which 1,200 μL of an acetonitrile solution containing an internal standard (5 ng/mL loratadine) was added. Even vortex mixing was conducted at 2,500 rpm. Centrifuging was conducted for 10 minutes at 20,000 rcf at 4° C. […] Contents of prototype drugs were detected by LC-MS/MS. […]
MassLynx V4.2 software was used for data collecting. After integration parameters were optimized, target chromatographic peaks were automatically integrated, individual chromatographic peaks were not allowed to be integrated separately or manually, and retention time and a peak area were calculated. Data was collected by MassLynx V4.2, and subjected to integration processing to obtain the retention time and the peak area, and a peak area ratio of an analyte to an internal standard was calculated. […]

Where [3] appears, read: iv, Rat PK i.v 3 mg/kg, read-out: Cmax/Co.
Where [4] appears, read: po, Rat PK p.o 30 mg/kg, read-out: Cmax.

With `Cc1ccc(C2=NN(C(=O)N[C@H](C)c3ccc(C(F)(F)F)nc3)C[C@@H]2N2CCOC2=O)cc1` [Compound 22], in data set [1] (Rat PK i.v 3 mg/kg), the “ACU” value stood at 275.63 kg·ng·h/mL/mg. In data set [1] (Rat PK p.o 30 mg/kg), the “ACU” value worked out at 766 kg·ng·h/mL/mg. Also, in data set [1] (iv, Rat PK i.v 3 mg/kg), the clearance was 26.5 mL/min/kg, the half-life was 1.31 h and the Vd is 2.8 L/kg. Also, in data set [1] (setting [3]), the Cmax worked out at 2210 ng/mL. In data set [1] (po, Rat PK p.o 30 mg/kg), the Tmax is 0.92 h, the bioavailability was 36% and the half-life was 2.71 h. In addition, the Cmax in data set [1] (setting [4]) stood at 1450 ng/mL. Moreover, the “stability in artificial gastric and intestinal fluids” value in data set [2] is on record as “relatively stable”.
Consider `CCOC(=O)N(C)[C@H]1CN(C(=O)N[C@H](C)c2cnc(C(F)(F)F)nc2)N=C1c1ccc(C)cc1` [Compound 4, (S)-4-(N-methyl-N-ethoxycarbonylamino)-3-(4-methylphenyl)-N-((R)-1-(2-(trifluoromethyl)pyrimidin-5-yl)ethyl)-4,5-dihydro-1H-pyrazol-1-carboxamide], for which the “ACU” value in data set [1] (Rat PK i.v 3 mg/kg) amounted to 427.84 kg·ng·h/mL/mg. Besides, the “ACU” value in data set [1] (Rat PK p.o 30 mg/kg) was determined as 367.68 kg·ng·h/mL/mg. In data set [1] (iv, Rat PK i.v 3 mg/kg), the clearance is 39.2 mL/min/kg, the half-life was 0.6 h and the Vd was 2.05 L/kg. Further, in data set [1] (setting [3]), the Cmax worked out at 1750 ng/mL. In addition, in data set [1] (po, Rat PK p.o 30 mg/kg), the time to peak (Tmax) amounted to 1.8 h, the bioavailability was 86% and the half-life was 2.23 h. Further, the Cmax in data set [1] (setting [4]) amounted to 4950 ng/mL. In addition, in data set [2], the “stability in artificial gastric and intestinal fluids” value is on record as “relatively stable”.
